Measurements published in patent US20080051348A1, “TREATMENT OF INFECTIONS AND OTHER DISORDERS” (RegeneRx Biopharmaceuticals, Inc., priority 2002, published 2008).
Values after ≈ are worked out from the molar mass of the structure shown.

Legend:
Type in all cases: cell-based
[1] = tested on: Pseudomonas aeruginosa; test: Antimicrobial assay, Example 1
Experimental: The purpose of this study was to study the antimicrobial activity of peptides against common pathogens in vitro. Antimicrobial assays were performed to assess peptide activity against Pseudomonas aeruginosa. […]

[2] = tested on: Staphylococcus aureus; test: Antimicrobial activity, Example 3
[3] = tested on: Escherichia coli; test: Antimicrobial activity, Example 3
[4] = tested on: Staphylococcus epidermidis (SE); test: Antimicrobial assay, Example 2
Experimental: (§1) Antimicrobial assays were performed to assess peptide activity against Pseudomonas aeruginosa (PA), Staphylococcus aureus ([…]), and Staphylococcus epidermidis (SE).

[5] = tested on: Staphylococcus aureus; test: Antimicrobial assay, Example 2
Experimental: as §1

[6] = tested on: Pseudomonas aeruginosa (PA)
Experimental: as §1

CC[C@H](C)[C@H](NC(=O)[C@H](CCC(=O)O)NC(=O)[C@H](C)NC(=O)[C@H](CCSC)NC(=O)[C@H](CC(=O)O)NC(=O)[C@@H]1CCCN1C(=O)[C@H](CCCCN)NC(=O)[C@H](CC(=O)O)NC(=O)[C@H](CO)NC(C)=O)C(=O)N[C@@H](CCC(=O)O)C(=O)N[C@@H](CCCCN)C(=O)N[C@@H](Cc1ccccc1)C(=O)N[C@@H](CC(=O)O)C(=O)N[C@@H](CCCCN)C(=O)N[C@@H](CO)C(=O)N[C@@H](CCCCN)C(=O)N[C@@H](CC(C)C)C(=O)N[C@@H](CCCCN)C(=O)N[C@@H](CCCCN)C(=O)N[C@H](C(=O)N[C@@H](CCC(=O)O)C(=O)N[C@H](C(=O)N[C@@H](CCC(N)=O)C(=O)N[C@@H](CCC(=O)O)C(=O)N[C@@H](CCCCN)C(=O)N[C@@H](CC(N)=O)C(=O)N1CCC[C@H]1C(=O)N[C@@H](CC(C)C)C(=O)N1CCC[C@H]1C(=O)N[C@@H](CO)C(=O)N[C@@H](CCCCN)C(=O)N[C@@H](CCC(=O)O)C(=O)N[C@H](C(=O)N[C@H](C(=O)N[C@@H](CCC(=O)O)C(=O)N[C@@H](CCC(N)=O)C(=O)N[C@@H](CCC(=O)O)C(=O)N[C@@H](CCCCN)C(=O)N[C@@H](CCC(N)=O)C(=O)N[C@@H](C)C(=O)NCC(=O)N[C@@H](CCC(=O)O)C(=O)N[C@@H](CO)C(=O)O)[C@@H](C)CC)[C@@H](C)O)[C@@H](C)O)[C@@H](C)O [Tβ4, thymosin β4]
lowest dose where activity and/or protection was demonstrated ([1]; against Pseudomonas aeruginosa): 0.5 to 1 µg/mL | EC50 against Pseudomonas aeruginosa ([1]; in vitro): 26.5 ± 1.6 µg/mL (≈ 5.34 µM) | concentrations showing antimicrobial activity [2]: 5-20 n mol/ml | concentrations showing increasingly dose-dependent activity [2]: 50-200 n mol/ml | concentrations showing antimicrobial activity [3]: 5-20 n mol/ml | concentrations showing increasingly dose-dependent activity [3]: 50-200 n mol/ml | effectiveness against staphylococcal strains [4]: weakly effective | effectiveness against staphylococcal strains [5]: weakly effective | EC50 against PA [6]: 18.1 ± 1.7 µg/mL (≈ 3.65 µM)
